From patent US11685714B2, “Prodrugs of cytotoxic active agents having enzymatically cleavable groups” (BAYER PHARMA AKTIENGESELLSCHAFT, priority 2016, dated 2023)

Experiments:
[1] = tested on: NCI-H292: human mucoepidermoid lung carcinoma cells; test: MTT assay on NCI-H292; format: cell-based; settings: NCI-H292, 96 h, growth inhibition, 96 h incubation
Method: (§1) The analysis of the cytotoxic effects of the ADCs was carried out with various cell lines:
(§2) The cells were cultivated by the standard method as stated by the American Tissue Culture Collection (ATCC) or the Leibniz-lnstitut DSMZ-Deutsche Sammlung von Mikroorganismen und Zellkulturen GmbH (DSMZ) for the cell lines in question.
(§3) The cells were then incubated in an incubator at 37° C. and 5% carbon dioxide. […] To this end, the MTT reagent was incubated with the cells for 4 h, followed by lysis of the cells overnight by addition of the detergent. […] The measured data were used to calculate the ICo50 of the growth inhibition using the DRC (dose response curve). The proliferation of cells which were not treated with test substance but were otherwise identically treated was defined as the 100% figure.

[2] = tested on: SK-HEP-1: human liver cell cancer line; test: MTT assay on SK-HEP-1; format: cell-based; settings: SK-HEP1, 96 h, growth inhibition, 96 h incubation
Method: as §1, §2, §3

[3] = target: T1, motor domain of the human kinesin spindle protein KSP/Eg5 (Homo sapiens, UniProt P52732); test: Inhibition of the kinesin spindle protein KSP/Eg5 (ATPase activity, malachite green); format: biochemical; settings: 10 nM KSP/Eg5, microtubuli, 500 μM ATP, 2 h at RT
T1 construct: The motor domain of the human kinesin spindle protein KSP/Eg5; purchased tebu-bio/Cytoskeleton Inc 027EG01-XL
T1 sequence (P52732 18-359 limits assumed): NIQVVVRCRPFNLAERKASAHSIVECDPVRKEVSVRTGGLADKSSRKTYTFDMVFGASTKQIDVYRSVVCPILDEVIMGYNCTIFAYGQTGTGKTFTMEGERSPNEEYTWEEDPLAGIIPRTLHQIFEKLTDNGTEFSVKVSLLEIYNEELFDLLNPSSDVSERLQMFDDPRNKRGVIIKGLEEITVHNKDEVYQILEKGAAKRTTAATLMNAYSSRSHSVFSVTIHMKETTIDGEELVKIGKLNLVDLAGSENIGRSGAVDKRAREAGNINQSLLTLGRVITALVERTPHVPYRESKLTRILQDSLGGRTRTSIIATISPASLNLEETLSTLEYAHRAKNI
Method: The motor domain of the human kinesin spindle protein KSP/Eg5 (tebu-bio/Cytoskeleton Inc, No. 027EG01-XL) was incubated in a concentration of 10 nM with microtubuli (bovine or porcine, tebu-bio/Cytoskeleton Inc) stabilized with 50 μg/ml taxol (Sigma No. T7191-5MG) for 5 min at RT in 15 mM PIPES, pH 6.8 (5 mM MgCl2 and 10 mM DTT, Sigma). […] Incubation was at RT for 2 h. ATPase activity was detected by detecting the inorganic phosphate formed using malachite green (Biomol). […] The positive controls used were monastrol (Sigma, M8515-1 mg) and ispinesib (AdooQ Bioscience A10486). The individual data of the dose-activity curve are eight-fold determinations. The IC50 values are means of two independent experiments.

[4] = tested on: KPL4: human breast cancer cell line; test: MTT assay on KPL4; format: cell-based; settings: KPL4, 96 h, growth inhibition, 96 h incubation
Method: as §1, §2, §3

[5] = Assay for determination of stability in rat plasma; format: in vitro ADME; settings: 1 μg/ml, 37° C., 24 h
Method: To examine the stability of compounds A and B, 1 ml of rat plasma in a 1.5 ml Eppendorf tube in each case was equilibrated to 37° C. on an Eppendorf shaker. A stock solution (9 acetonitrile/1 DMSO) having a concentration of 100 μg/ml for compound A and compound B was prepared. 10 μl in each case of the stock solution were pipetted into 1 ml of equilibrated rat plasma, so as to give a concentration of 1 μg/ml.
The samples were kept at 450 rpm and 37° C. for 24 h. At each of the sampling times of 0, 0.25 h, 0.5 h, 1 h, 2 h, 4 h, 6 h and 24 h, 50 μl were taken and pipetted into 150 μl of methanol. Internal standard was included in the initial charge of methanol at a concentration of 0.05 μg/ml. After brief vortexing, 300 μl of 10 mM ammonium acetate buffer (pH 6.8) were added and centrifuged at 1881 g for 10 min. The samples were then analysed by means of RP-HPLC analysis and by LC-MS analysis.

SMILES | IC50 [1] | IC50 [2] | IC50 [3] | IC50 [4] | stability in rat plasma [5]
CC(C)(C)[C@H](c1cc(-c2cc(F)ccc2F)cn1Cc1ccccc1)N(CC[C@H](N)C(=O)NCCNC(=O)CCCC(=O)NCCCC[C@H](N)C(=O)O)C(=O)CO [Example M29, N^6-(5-{[2-({(2S)-2-Amino-4-[{(1R)-1-[1-benzyl-4-(2,5-difluorophenyl)-1H-pyrrol-2-yl]-2,2-dimethylpropyl} (glycoloyl)amino]butanoyl}amino)ethyl]amino}-5-oxopentanoyl)-L-lysine/trifluoroacetic acid (1:1)] | 187 nM | 207 nM | 2.03 nM | – | –
CC(C)(C)[C@H](c1cc(-c2cc(F)ccc2F)cn1Cc1ccccc1)N(CC[C@H](N)C(=O)NCCNC(=O)CNC(=O)CCCC(=O)NCCCC[C@H](N)C(=O)O)C(=O)CO [Example M28, N^6—{(3R,7S)-7-Amino-3-[1-benzyl-4-(2,5-difluorophenyl)-1H-pyrrol-2-yl]-4-glycoloyl-2,2-dimethyl-8,13,16,20-tetraoxo-4,9,12,15-tetraazaicosan-20-yl}-L-lysine/trifluoroacetic acid (1:1)] | 155 nM | 187 nM | 1.41 nM | 210 nM | –
CNC(=O)[C@H](CCN(C(=O)CO)[C@@H](c1cc(-c2cc(F)ccc2F)cn1Cc1ccccc1)C(C)(C)C)NC(=O)[C@H](CC(N)=O)NC(=O)[C@H](C)NC(=O)[C@H](C)NC(=O)Cc1ccncc1 [Example R3r-LLL, N-(Pyridin-4-ylacetyl)-L-alanyl-L-alanyl-N^1-[(2S)-4-[{(1R)-1-[1-benzyl-4-(2,5-difluorophenyl)-1H-pyrrol-2-yl]-2,2-dimethylpropyl}(glycoloyl)amino]-1-(methylamino)-1-oxobutan-2-yl]-L-aspartamide, reference compound] | 204 nM | 232 nM | 162 nM | – | stable over 24 h
